Measured values: ChEMBL document CHEMBL1150211, “Structure of Irniine, a Pyrrolidine Alkaloid from Arisarum vulgare” (J Nat Prod, 1992)
Values after ≈ are worked out from the molar mass of the structure shown.

Test: Toxicity in brine shrimp
Type: organism-based
Settings: artemia, in vivo

`CN1CCC[C@H]1CCCCCCCCCc1ccccc1` showed an LC50 of 1 µg/mL (≈ 3.48 µM).
